Test results as given in patent US20230200388A1, “COMPOUNDS AND METHODS FOR STIMULATING PLANTS” (Sound Agriculture Company, priority 2020, published 2023).

Legend:
Assay type in all cases: cell-based
[1] = system: nifHpro::luciferase Azotobacter vinelandii reporter strain; assay: nifHpro::luciferase bioreporter assay for nitrogen fixation; conditions: 1 μM, 24 h, relative to control bacteria not contacted
Experimental: Three hundred base pairs upstream of the ATG of the nifHDK of Azotobacter vinelandii (nifHipro) was cloned in frame, upstream of luciferase in pVSP61 (kanR). Azotobacter vinelandii (Lipman ATCC® BAA-1303) was transformed with the reporter plasmid with triparental mating, Transformants were selected for on nitrogen-free kanamycin plates and confirmed with PCR and sequencing.
Five milliliters of nifHpro::luciferase Bioreporter strain #171 was grown overnight in autoclaved, nitrogen-free medium (Burks, HiMedia M707) at starting OD600=0.02 with 1 ug/mL Kanamycin in sterile 50 mL flasks. Chemical treatments were dissolved in 100% EtOH and added at appropriate concentrations, keeping the volume constant. The solvent was no more than 2% of the final culture volume, and solvent only controls were included in each experiment.
After 24 h, the growth density each culture was read in a clear, flat-bottomed microplate by adding 180 μl to each well (flasks were measured in triplicate) and measuring absorbance at 600 nm in a microplate reader. […]
The luminescence of each well was read on an iD3 plate reader (Molecular Devices). Luminescence of each well (reported as RLU, Relative Light Unit) was divided by its OD600 in order to adjust for culture density.

[2] = system: soil's native microbial community; assay: Phosphate solubilization in soil consortia (soil as inoculum in NBRIP media); conditions: relative to soil not contacted with QC
Excerpt: To determine if a test compound, QC, alters phosphate solubilization in a soil's native microbial community, dried and sieved soil was used as a bacterial inoculum in NBRIP media with and without QC.

[3] = system: nifHpro::luciferase Azotobacter vinelandii reporter line; assay: Nitrogenase (nifH) activity with nifHpro::luciferase Azotobacter vinelandii reporter line; conditions: 10 μM to 0.001 μM in DMSO, 21 hours, over controls, n=9 experiments, FIG. 6
Experimental: Gibson Assembly was used to clone the luciferase gene (ordered from IDT) into pE_Gm and LR into pVSP61 (plasmids provided by Doug Dahlbeck at Staskawicz Lab, UC Berkeley). Standard triparental mating was used with pRK600 (provided by Doug Dahlbeck at Staskawicz Lab, UC Berkeley) to obtain the final reporter strain of Azotobacter vinelandii transformed with reporter plasmid.
nifHpro::luciferase Azotobacter vinelandii were grown for 24 hours in 50 mL liquid Burks —N media (HiMedia Laboratories) with 1 ng/μL Kanamycin, shaking at 100 RPM under lights at ˜30° C. After 24 hours, supernatant was spun down 12000 G for two minutes to collect cells. After supernatant was removed, cells were washed with cleared Burks —N liquid media supernatant, resuspended, and centrifuged again at 12000 G. This process was repeated, for a total of two washes.
Resuspended cells were combined with Burks —N media with 1 ng/μL Kanamycin, to obtain a fresh culture at OD 0.1. 50 mL shake flasks were then inoculated with 5 mL of this culture, plus appropriate chemistry, in the scheme that follows. A stock solution of Quercetin was made in DMSO. […]
After 21 hours, 50 mL flasks were removed from the shaker. […] Plates were inserted into plate reader and luminescence of each well was analyzed.

Row | SMILES | luminescence (nitrogen fixation) [1] | amount of detectable orthophosphate in the growth media of soil-inoculated cultures [2] | activation of nifHpro::luciferase bioreporter (nitrogenase gene expression) [3]
1 | O=c1c(O)c(-c2ccc(O)c(O)c2)oc2cc(O)cc(O)c12 [QC, quercetin] | significant increase | increased | –
2 | O=c1c(O)c(-c2ccc(O)c(O)c2)oc2cc(O)cc(O)c12 [Formula Id] | – | – | activated
